Converted amounts (≈) assume the structure as drawn.
Test system: Vaccinia virus
Assay: Antiviral activity against Vaccinia virus in HEL cells assessed as reduction of virus-induced cytopathogenicity
Type: functional
Details: Orthopoxvirus vaccinia

First: NC(=O)c1ncn([C@@H]2O[C@H](CO)[C@@H](O)[C@H]2O)n1 [RIBAVIRIN]
Second: O=c1[nH]c(=O)n([C@H]2C[C@H](O)[C@@H](CO)O2)cc1/C=C/Br [BRIVUDINE]
The MIC of the first is 75-fold higher: 150 µM (≈ 36.6 µg/mL) for the first, 2 µM (≈ 0.666 µg/mL) for the second.

First: Nc1nc2c(ncn2COCCO)c(=O)[nH]1 [ACYCLOVIR]
Second: Nc1nc2c(ncn2COC(CO)CO)c(=O)[nH]1 [GANCICLOVIR]
The MIC of the first is higher: greater than 250 µM for the first, 100 µM (≈ 25.5 µg/mL) for the second.

From ChEMBL document CHEMBL1148744, “Synthesis and antiviral and cytostatic evaluations of the new C-5 substituted pyrimidine and furo[2,3-d]pyrimidine 4',5'-didehydro-L-ascorbic acid derivatives” (J Med Chem, 2007)
